Laboratory results published in US20170042991A1, “COMPOSITIONS COMPRISING GLUTEN PEPTIDES AND USES THEREOF” (ImmusanT, Inc., priority 2014, published 2017).
Non-standard residues stand in square brackets, D forms with d. pGlu = O=C1CC[C@@H](C(=O)O)N1

Key:
gluten-reactive T cells = assay: Cytokine release assays taken together (IFNγ ELISpot, whole blood IFNγ and IP-10 release); assay type: cell-based, human; conditions: for relative activity among individual peptides tested: blood collected after oral gluten challenge, HLA-DQ2.5+ subjects
Description: Gluten peptide solutions for addition to whole blood were arranged according to standardized templates in sterile 96-well U-bottom plates (30 μL/well). Plates were sealed with adhesive ELISA plate cover slips before the plastic lid was replaced and being frozen at −80° C. Whole blood assay (WBA) “medium” (1% DMSO in 90% PBS and 9% normal saline), mitogen (PHA-L, Sigma-Aldrich #L2769; St Louis Mo.) 100 μg/ml in WBA medium, and CEF diluted to 10 μg/ml in PBS with a final concentration of 1% DMSO were frozen separately in sterile cryovials. 96-well plates and cryovials with frozen incubation solutions were shipped on dry ice to the clinical site where blood was collected and incubations performed. Solutions were thawed at room temperature for 10 min just before being added to whole blood. 96-well plates were thawed while being centrifuged at 300 g to avoid surface condensation. A multi-channel pipette was used to efficiently transfer 25 μL of peptide solutions from the original 96-well plate to corresponding wells in a fresh sterile 96-well U-bottom plate. Once incubation solutions had been added, 225 μL of whole blood was added to each well and the plate transferred to incubate for 24 h at 37° C. 5% CO2. […] Individual peptides were incubated at a final assay concentration of 5 μM. Final concentrations of individual peptides assessed in P3 was 0.05-50 μg/mL, and in P14 and P13 pools 0.025-25 μM. The P71 pool was tested at between 0.005-10 μg/mL, the highest tested concentration being the maximal possible not exceeding 0.1% DMSO. Peptide pools, mitogen, and medium only were assessed in triplicate wells, and on Day-6 individual peptides were assessed in duplicate wells. Incubations were terminated after 24 h, and 96-well plates centrifuged at 300 g for 10 min. A total of approximately 90 to 120 μL of plasma was removed from each well taking care to avoid red cell contamination, and transferred into corresponding wells of two further 96-well plates (one with 30 μL/well and the residual in the second plate). Plasmas were frozen at −80° C. and later shipped on dry ice to the central lab where IP-10 and IFNγ multiplex bead assays were performed according to manufacturer's instructions using 25 μL plasma per well (Milliplex® MAP Human Cytokine/Chemokine Magnetic Bead Panel #HCYTOMAG-60k-02; EMD Millipore Corp., Billerica, Mass. 01821) and analysed with the Luminex® MAGPIX® System xPONENT® software (Luminex Corporation, Austin Tex. 78727). Plasma cytokine levels for each assay condition were expressed as the mean analyte concentration of each of the three replicate incubations. Laboratory staff were unaware of the arrangement of peptide solutions incubated with during assay setup and plate counting. […]

PBMC = assay: IFN-gamma ELISpot of PBMC, Day-6 after gluten challenge (Example 1); assay type: cell-based, human; conditions: DQ2.5+ CD

Substance	relative activity among individual peptides tested (gluten-reactive T cells)	activity as a fraction of that of Peptide 14 (gluten-reactive T cells; three cytokine release assays)	Peptide-specific IFN-gamma ELISpot response (PBMC; Subject 1, 10 ug/ml)	Peptide-specific IFN-gamma ELISpot response (PBMC; Subject 2, 10 ug/ml)	Peptide-specific IFN-gamma ELISpot response (PBMC; Subject 3, 10 ug/ml)	Peptide-specific IFN-gamma ELISpot response (PBMC; Subject 4, 10 ug/ml)	Peptide-specific IFN-gamma ELISpot response (PBMC; Subject 5, 10 ug/ml)	Peptide-specific IFN-gamma ELISpot response (PBMC; Subject 6, 10 ug/ml)	Peptide-specific IFN-gamma ELISpot response (PBMC; Subject 7, 10 ug/ml)	Peptide-specific IFN-gamma ELISpot response (PBMC; Subject 8, 10 ug/ml)	Peptide-specific IFN-gamma ELISpot response (PBMC; Subject 9, 10 ug/ml)	Peptide-specific IFN-gamma ELISpot response (PBMC; Subject 10, 10 ug/ml)
(pE)LQPFPQPELPYPQPQ-amide ([pGlu]LQPFPQPELPYPQPQ-NH2; SMILES CC(C)C[C@H](NC(=O)[C@@H]1CCC(=O)N1)C(=O)N[C@@H](CCC(N)=O)C(=O)N1CCC[C@H]1C(=O)N[C@@H](Cc1ccccc1)C(=O)N1CCC[C@H]1C(=O)N[C@@H](CCC(N)=O)C(=O)N1CCC[C@H]1C(=O)N[C@@H](CCC(=O)O)C(=O)N[C@@H](CC(C)C)C(=O)N1CCC[C@H]1C(=O)N[C@@H](Cc1ccc(O)cc1)C(=O)N1CCC[C@H]1C(=O)N[C@@H](CCC(N)=O)C(=O)N1CCC[C@H]1C(=O)N[C@@H](CCC(N)=O)C(N)=O) [Peptide 1]	most active of this group of related peptides	no more than two-thirds	2 spot forming units per 0.8 million PBMC	4 spot forming units per 0.8 million PBMC	2 spot forming units per 0.8 million PBMC	8 spot forming units per 0.8 million PBMC	0 spot forming units per 0.8 million PBMC	4 spot forming units per 0.8 million PBMC	1 spot forming units per 0.8 million PBMC	0 spot forming units per 0.8 million PBMC	0 spot forming units per 0.8 million PBMC	1 spot forming units per 0.8 million PBMC
(pE)PEQPIPEQPQPYPQQ-amide ([pGlu]PEQPIPEQPQPYPQQ-NH2; SMILES CC[C@H](C)[C@H](NC(=O)[C@@H]1CCCN1C(=O)[C@H](CCC(N)=O)NC(=O)[C@H](CCC(=O)O)NC(=O)[C@@H]1CCCN1C(=O)[C@@H]1CCC(=O)N1)C(=O)N1CCC[C@H]1C(=O)N[C@@H](CCC(=O)O)C(=O)N[C@@H](CCC(N)=O)C(=O)N1CCC[C@H]1C(=O)N[C@@H](CCC(N)=O)C(=O)N1CCC[C@H]1C(=O)N[C@@H](Cc1ccc(O)cc1)C(=O)N1CCC[C@H]1C(=O)N[C@@H](CCC(N)=O)C(=O)N[C@@H](CCC(N)=O)C(N)=O) [Peptide 3]	consistently the second most active peptide after Peptide 14	–	0 spot forming units per 0.8 million PBMC	1 spot forming units per 0.8 million PBMC	9 spot forming units per 0.8 million PBMC	30 spot forming units per 0.8 million PBMC	0 spot forming units per 0.8 million PBMC	11 spot forming units per 0.8 million PBMC	1 spot forming units per 0.8 million PBMC	9 spot forming units per 0.8 million PBMC	3 spot forming units per 0.8 million PBMC	1 spot forming units per 0.8 million PBMC
